Legend:
[1] = tested on: SU_MB002 cells genomic DNA; experiment: Differential methylation analysis (Illumina EPIC array); type: cell-based, human
Method: Illumina Human Infinium MethylationEPIC (EPIC) BeadChip (Illumina, CA, USA) array was performed at The Centre for Applied Genomics, The Hospital for Sick Children (Toronto) using the manufacturer's standard protocol.
Raw IDAT files (annotation: ilm10b4.hg19) were processed using R (Version 4.1.2) and quality control and normalization was performed using minfi^76. Intensity and density plots were generated, and no samples were removed from the analysis as the mean detection p-values for all probed genomic positions were <0.01 for each sample. Probes with mean detection p-values >0.01 across all samples were excluded. Probes mapping sex chromosomes, single nucleotide polymorphisms (SNPs), and cross-hybridisation probes were removed. Quantile normalization was performed, and density plots were generated before and after normalization. Differential analysis was completed with beta values of 768467 CpGs for 8 samples comparing BAY to DMSO at 48 h and 72 h using limma^77. P-values were adjusted for False Discovery Rate (FDR) using Benjamini and Hochberg method, and a 10% FDR and log FC of >|0.1| cut-off was used.
Differentially methylated positions (DMPs) were annotated using the USCS (UCSC_RefGene_Name, UCSC_RefGene_Group and Relation_to_Island) from the Infinium MethylationEPIC Manifest. The analysis was performed focusing on DMPs within promoter islands (considering TSS1500, TSS200, 5′UTR and 1st exon as promotor regions). Enrichment analysis of unique genes (using UCSC RefGene Name) identified within DMPs at promoter islands was performed using Enrichr (ENCODE TF ChIP-seq 2015)^43.

SU_MB002 = experiment: PrestoBlue cell viability, 72-hour treatment, limiting dilution; type: cell-based, human; settings: SU_MB002, media with uridine hydrochloride (100 μM)
Method: SU_MB002, NSC194, NSC197 and NSC201FT, MBT375 and MED411FHTC were maintained in Neurocult Complete (NCC) media (Stem Cell Technologies; catalogue #05751). D425 and D458 were maintained in Dulbecco's […] (DMEM) containing 10% fetal bovine serum (FBS). HD-MB03 were maintained in NCC containing 10% FBS. All cell lines were conditioned in NCC for a minimum of 48 hours before experimentation. SU_MB002 and HD-MB03 G3MB-MYC PDOX were obtained from collaborators as kind gifts and are frequently passaged in vivo. SU_MB002, a treatment-refractory group 3 MB acquired at autopsy was received from Dr. Yoon-Jae Cho. Dr. Till Milde provided HD-MB03, a treatment-naïve group 3 MBs. ICB1299 group 4 MB cells were obtained as a gift from Silvia Marino's laboratory^62. MBT375 was established in-house from a surgical specimen of group 4 MB, which was engrafted in the cerebellum of mice for serial propagation. Nanostring genotyping was used to confirm group 4 medulloblastoma identity. MED411FHTC PDOX were procured from Dr. Olson's brain tumor research lab. D425 and D458 were obtained from the ATCC. All cell lines were fingerprint verified by short tandem repeat (STR) profiling. NSC194, NSC197 and NSC201FT were derived in-house from donor fetal brain tissues^63.
For assessment of viability, cells were seeded into 96-well plates at a density of 1,000 cells per well. Viability was measured by adding PrestoBlue™ diluted 1:10 (ThermoFisher Scientific; Catalogue #A13261) followed by a 4-hour incubation. Relative fluorescence intensity was determined via background correction. To assess tumorsphere forming capacity, cells were seeded at a low density (200 cells per well) and incubated for 3-5 days. Tumorspheres were manually counted thereafter.

EGR1 = experiment: Western blotting of EGR1 expression; type: cell-based, human; settings: BAY-treated tumor cells relative to control
Text: A wide range of enriched biological processes were detected upon genetic loss of DHODH, including myogenic differentiation, apoptosis, DNA damage response and signaling via tumor necrosis factor α (TNFα).
Protein lysates were isolated from approximately 500,000-1,000,000 cells. Pellets were rinsed with PBS and then lysed in RIPA buffer containing HALT™ protease inhibitor cocktail (ThermoFisher). Protein concentrations were quantified using the Bradford Assay (BioRad). Protein size was resolved via SDS-PAGE and then transferred to PVDF for immunoblotting. Rabbit polyclonal anti-DHODH (Cell Signaling Technologies; catalogue #80981), rabbit monoclonal anti-EGR1 (Cell Signaling Technologies; catalogue #4145), rabbit polyclonal anti-phospho-ERK1/2 Thr202/Tyr204 (Cell Signaling Technologies; catalogue #9101), rabbit monoclonal anti-phospho-4E-BP1 Thr37/46 (Cell Signaling Technologies; catalogue #2855) were used at a 1:1000 dilution. Mouse monoclonal anti-GAPDH (Abcam; catalogue #ab8245) was used at a 1:5000 dilution. For development, horse-radish peroxidase-conjugated secondary anti-mouse (BioRad; catalogue #1706516) and anti-rabbit antibodies (BioRad; catalogue #1706515) were used with BioRad Clarity ECL reagents. Quantification was performed by analyzing mean pixel density of each band and then normalizing to GAPDH loading control. […]

[2] = Pharmacokinetic analysis of BAY2402234 in plasma and brain by LC-MS; type: in vivo; settings: healthy mice undergoing treatment
Method: In parallel to these experiments, subcutaneous flank xenografts were engrafted into two cohorts of mice, which were treated with the vehicle or R2. […] To investigate the pharmacokinetics of BAY in vivo, its concentration in plasma and brain tissues of healthy mice was directly quantified using an LC-MS approach. BAY was detected in both brains and plasma of mice undergoing treatment, however the plasma concentrations exceeded those of the brain by approximately 10-fold (FIG. 5H-I). To determine whether treatment with BAY affects de novo pyrimidine biosynthesis in vivo, changes in pyrimidine metabolism were measured in the brain in comparison to tumor tissues from the flank (FIG. 5J-K). Although BAY treatment impacted de novo pyrimidine metabolism in vivo in both brain and tumor tissues, with a similar pattern observed in vitro (FIG. 4A), the effect size was stronger in peripheral tumor tissue in comparison to brain tissue. Such findings further reflect the limited capacity for BAY to accumulate within the brain.
Standards and samples were extracted by the addition of organic solvent, containing the internal standard (IS), for protein precipitation. […] Brains were analyzed similarly, with 20 μL of sample transferred to 180 μL of IS solution prior to analysis via LC-MS.

CCn1c(CO)nn(-c2cc(O[C@@H](C)C(F)(F)F)c(C(=O)Nc3c(F)cccc3Cl)cc2F)c1=O [BAY2402234]
DMPs in promoter islands ([1]; 48 h): 2/18 | differentially methylated positions (DMPs), BAY vs vehicle ([1]; 48 h of treatment): 18 | DMPs in promoter islands ([1]; 72 h): 123/751 | differentially methylated positions (DMPs), BAY vs vehicle ([1]; 72 h of treatment): 751 | tumor cell proliferation and viability with uridine supplementation (SU_MB002): rescues | EGR1 protein expression (EGR1): upregulated at the protein level | plasma concentration relative to brain concentration [2]: approximately 10 fold

Reference: patent US20250152559A1, “METHODS FOR TREATING MYC-AMPLIFIED CANCER” (The Governing Council of the University of Toronto, priority 2023, published 2025)
